Earlier results as cited in US8512751B2, “Pharmaceutical compositions for sleep disorders” (Collegium Pharmaceutical, Inc., priority 2004, dated 2013).
Where a name gives a salt, the structure may show the parent alone. Each block holds one molecule with its values, some of them ahead of it.

How the values were obtained:
[1] = man, single oral 40-mg dose
sleep apnea [2] = conditions: for effect in individuals with sleep apnea: patients, literature
nocturnal sleep = conditions: healthy adults; 20, 40 and 60 mg
serotonin uptake = conditions: animal models
sleep apnea [3] = conditions: animal model of sleep apnea
[4] = water and normal saline
[5] = in vivo

peak plasma concentrations [1]: 15 to 55 ng/mL
time of peak plasma concentrations [1]: 6 to 8 h
patients with increased EOG and EMG activity on treatment in every sleep stage (EOG and EMG activity; in vivo): Thirty-four
Molecule: CNCCC(Oc1ccc(C(F)(F)F)cc1)c1ccccc1 (stereo not drawn) [fluoxetine]
individuals with OSAS with measurable benefits (sleep apnea [2]; initial evidence): approximately 50%
effects on nocturnal sleep (nocturnal sleep): reduced the total sleep time and the duration of rapid eye movement (REM) sleep and increased awake activity and stage 1 (drowsy) sleep during the night
number of eye movements, EOG and EMG activity on treatment (EOG and EMG activity; REM, stages 1, 2, and slow-wave sleep): significantly increases the number of eye movements

Molecule: NCC[C@@H](Oc1ccc(C(F)(F)F)cc1)c1ccccc1 [R-norfluoxetine]
inhibition of serotonin uptake, activity relative to fluoxetine (serotonin uptake): significantly less potent than the parent drug

Molecule: Nc1ncnc2c1ncn2[C@@H]1O[C@H](CO)[C@@H](O)[C@H]1O [adenosine]
reduction of apnea (sleep apnea [3]): somewhat effective in reducing apnea

Molecule: C=CCN1CC[C@]23c4c5ccc(O)c4O[C@H]2C(=O)CC[C@@]3(O)[C@H]1C5 [naloxone]
effect in individuals with sleep apnea (sleep apnea [2]): only slightly helpful

Bioavailability, effect of antacids (antacids): unaffected
Mean bioavailability (healthy subjects, single 8-mg tablet): approximately 56%
radiolabeled dose recovered from the urine as the parent compound (humans): approximately 5%
AUC from a 16-mg tablet greater than predicted from an 8-mg tablet dose (oral tablets): 24%
half-life (plasma, humans): 3 to 5 h
Bioavailability, effect of food (presence of food): slightly enhanced
extent and rate of absorption, gender difference (single dose): greater in women than men
Molecule: Cc1nccn1CC1CCc2c(c3ccccc3n2C)C1=O (stereo not drawn) [Ondansetron]

Molecule: Cn1c(=O)c2[nH]cnc2n(C)c1=O [theophylline]
effect in individuals with sleep apnea (sleep apnea [2]): may benefit patients with central apnea but appears to be of no use in adult patients with obstructive apnea

solubility [4]: soluble in water and normal saline
Molecule: Cc1nccn1CC1CCc2c(c3ccccc3n2C)C1=O (racemic) [Ondansetron HCl dihydrate, (±) 1,2,3,9-tetrahydro-9-methyl-3-[(2-methyl-1H-imidazol-1-yl)methyl]-4H-carbazol-4-one, monohydrochloride, dihydrate]

Molecule: CNCCCC1c2ccccc2C=Cc2ccccc21 [Protriptyline]
effect in individuals with sleep apnea (sleep apnea [2]): variable results and frequent and significant side effects

Molecule: CC1(C)Cc2cc(Cl)cc(C(=O)NC3CC4CCC(C3)[N+]4(C)C)c2O1 (stereo not drawn) [methylated zatosetron]
ability to cross the blood-brain barrier [5]: lack the ability to cross the blood-brain barrier

Molecule: NCC[C@H](Oc1ccc(C(F)(F)F)cc1)c1ccccc1 [S-norfluoxetine]
inhibition of serotonin uptake, activity relative to fluoxetine (serotonin uptake): essentially equivalent to R- or S-fluoxetine

Molecule: medroxyprogesterone
effect in individuals with sleep apnea (sleep apnea [2]): no consistent benefit in OSAS

Molecule: CCN1CC(CCN2CCOCC2)C(c2ccccc2)(c2ccccc2)C1=O (stereo not drawn) [doxapram]
effect in individuals with sleep apnea (sleep apnea [2]): decrease the length of apneas but did not alter the average arterial oxygen saturation

Molecule: CC(=O)Nc1nnc(S(N)(=O)=O)s1 [acetazolamide]
effect in individuals with sleep apnea (sleep apnea [2]): produced variable improvement in individuals with primary central apneas but caused an increase in obstructive apneas
